Source: patent publication US11498920B2, “4-(1H-imidazol-5-yl)-1H-pyrrolo[2, 3-b] pyridines for use in the treatment of leukaemias, lymphomas and solid tumors” (MASARYKOVA UNIVERZITA, priority 2018, dated 2022)

Experiments:
[1] = Pharmacokinetic study, oral dosing, plasma concentration by LC-MS/MS (Example II.5); format: in vivo; details: mouse, male Balb/c mice, oral 20 mg/kg as dihydrochloride in saline, free base quantified, below LLOQ designated zero; for concentration at 15 min: read-out: conc. at 15 min; for concentration at 30 min: read-out: conc. at 30 min; for concentration at 60 min: read-out: conc. at 60 min; for concentration at 120 min: read-out: conc. at 120 min; for concentration at 240 min: read-out: conc. at 240 min; for concentration at 600 min: read-out: conc. at 600 min
Procedure: Male Balb/c mice (10-12 weeks old, body weight 24.1 to 30.8 g and average body weight across all groups 26.8 g, SD=1.7 g) were used in this study. The animals were randomly assigned to the treatment groups before the pharmacokinetic study; all animals were fasted for 4 h before dosing. The time points indicated in Table 4 were set for this pharmacokinetic study. Each of the time point treatment group included 4 animals. There was also control group of 2 animals. The compounds were dosed orally as the corresponding dihydrochlorides dissolved in physiological saline (c=3-4 mg/mL) at the dose of 20 mg/kg.
Mice were injected IP with 2,2,2-tribromoethanol at the dose of 150 mg/kg prior to drawing the blood. Blood collection was performed from the orbital sinus in microtainers containing K2EDTA. Animals were sacrificed by cervical dislocation after the blood samples collection. All samples were immediately processed, flash-frozen and stored at −70° C. until subsequent analysis.
Plasma samples (50 μL) were mixed with 200 μL of internal standard solution. After mixing by pipetting and centrifuging for 4 min at 6,000 rpm, 0.5 μL of each supernatant was injected into LC-MS/MS system.
The analyzed compound (as a dihydrochloride salt) was dissolved in DMSO, and the resulting solution with concentration of 2 mg/mL was used for calibration standards preparation (stock solution). A series of calibration standards was prepared by consecutively dilution of stock compound solution with blank mouse plasma to a final concentration of 40 000, 20 000, 10 000, 5 000, 2 500, 1000, 500, 250, 100, 50, and 20 ng/mL. Standard plasma samples (50 μL) were mixed with 200 μL of internal standard. After mixing by pipetting and centrifuging for 4 min at 6,000 rpm, 0.5 μL of each supernatant was injected into LC-MS/MS system. Signal corresponding to the free base was analyzed and quantified (Table 4).
The regression analysis of the analyzed compound was performed by plotting the peak area ratio (y-axis) against the compound concentration in calibration standards (x-axis, ng/mL).
The concentrations of the analyzed compound in plasma samples below the lower limit of quantitation (LLOQ—5 ng/mL to 20 ng/mL) were designated as zero.

primary CLL cells = assay: Cytotoxicity, TMRE flow cytometry viability, primary CLL cells (Example II.1); format: cell-based; details: Homo sapiens, CLL cell, 6 hours, TMRE positive cells normalized to control, ratio to PF670462, <1 = higher cytotoxicity than PF670462, read-out: Viability of cells, Compound of formula I (100 μM), relative to PF670462 (100 μM), CLL primary cells
[2] = tested on: Maver-1 cells (mantle cell lymphoma); assay: Cytotoxicity, TMRE flow cytometry viability, Maver-1 cells (Example II.1); format: cell-based; details: Homo sapiens, Maver1, 24 hours, TMRE positive cells normalized to control, ratio to PF670462, <1 = higher cytotoxicity than PF670462, read-out: Viability of cells, Compound of formula I (100 μM), relative to PF670462 (100 μM), Maver-1 cells (mantle cell lymphoma)
Procedure: The leukemia and lymphoma-derived cell lines [MEC-1 cell line (derived from chronic lymphocytic leukemia—CLL), Nalm-16 (acute lymphocytic leukemia—ALL), K562 (chronic myeloid leukemia—CML), HL-60 (acute myeloid leukemia—AML), Maver-1 and Mino (mantle cell lymphoma—MCL), BL-41 (Burkitt lymphoma—BL), WSU-NHL (follicular lymphoma—FL), SUDHL (diffuse large B-cell lymphoma—DLBCL)], primary CLL cells and nonmalignant control primary cells were cultured in suspension in flasks under the following conditions: RPMI 1640 medium (Hyclone) supplemented with 10% fetal bovine serum (FBS, Gibco) and 1% penicillin/streptomycin (Life Technologies), 37° C., 5% CO2 and 95% relative humidity, with optimal culture cell density 5×10^6 cells/mL in case of primary cells and 0.5-1×10^6 cells/mL in case of cell lines. The adherent cell lines [A375 (derived from malignant melanoma), MDA-MB-231 and MCF-7 (breast cancer), MIA-PA-CA and PANC1 (pancreatic cancer), PC3 (prostate cancer), OVCAR4 (ovarian cancer) and HEPG2 (hepatocellular carcinoma)] were cultured on plates under the same conditions using RPMI1640 or DMEM medium (Gibco) according to instructions provided by the distributor (DSMZ/ATCC).
Cytotoxicity of compounds of formula I was tested in two models representative for leukemia (primary CLL cells) and lymphoma (Maver-1 cells). The primary CLL cells and Maver-1 cells (MCL-derived) were incubated with inhibitors at 100 μM concentration or corresponding amount of solvent (DMSO, Sigma Aldrich) as 0.1×10^6 cells/200 μl per well in a 96-well plate. Experiments were performed in technical duplicates. Viability of cells was assessed after 6 hours in case of primary CLL cells and after 24 hours in case of Maver-1 cells.
Apoptosis-induced reduction of mitochondrial potential is detected as lower TMRE fluorescence. […] Relative values are presented, showing ratio to the effect of PF670462 (as the closest prior art). Relative value <1 indicates a higher cytotoxicity than PF670462.

Question: Which concentration at 15 min [1] does the source give for `Fc1ccc(-c2ncn(Cc3cocn3)c2-c2ccnc3[nH]ccc23)cc1` [Preparative Example 103, 4-((4-(4-fluorophenyl)-5-(1H-pyrrolo[2,3-b]pyridin-4-yl)-1H-imidazol-1-yl)methyl)oxazole] here?
Answer: The concentration at 15 min was 2170 nM.

Question: What about the concentration at 30 min [1] of the same molecule?
Answer: The concentration at 30 min was 580 nM.

Question: What about the concentration at 60 min [1] of the same molecule?
Answer: The concentration at 60 min was 130 nM.

Question: What about the concentration at 120 min [1] of the same molecule?
Answer: The concentration at 120 min was 80 nM.

Question: What about the concentration at 240 min [1] of the same molecule?
Answer: Its concentration at 240 min is 40 nM.

Question: What about the concentration at 600 min [1] of the same molecule?
Answer: The concentration at 600 min was 0 nM.

Question: For `Cc1nnc(Cn2cnc(-c3ccc(F)cc3)c2-c2ccnc3[nH]ccc23)[nH]1` [Preparative Example 107, 4-(4-(4-fluorophenyl)-1-((5-methyl-4H-1,2,4-triazol-3-yl)methyl)-1H-imidazol-5-yl)-1H-pyrrolo[2,3-b]pyridine], which concentration at 15 min [1] is on record?
Answer: The concentration at 15 min was 4780 nM.

Question: And the concentration at 30 min [1]?
Answer: The concentration at 30 min was 2420 nM.

Question: What about the concentration at 60 min [1] of the same molecule?
Answer: Its concentration at 60 min is 2300 nM.

Question: And the concentration at 120 min [1]?
Answer: The concentration at 120 min was 430 nM.

Question: And the concentration at 240 min [1]?
Answer: The concentration at 240 min was 240 nM.

Question: What about the concentration at 600 min [1] of the same molecule?
Answer: The concentration at 600 min was 0 nM.

Question: Which results are given for `Cn1cc(Cn2cnc(-c3ccc(F)cc3)c2-c2ccnc3[nH]ccc23)nn1` [Preparative Example 113, 4-(4-(4-fluorophenyl)-1-((1-methyl-1H-1,2,3-triazol-4-yl)methyl)-1H-imidazol-5-yl)-1H-pyrrolo[2,3-b]pyridine]?
Answer: concentration at 15 min [1]: 8010 nM; concentration at 30 min [1]: 3530 nM; concentration at 60 min [1]: 1030 nM; concentration at 120 min [1]: 1120 nM; concentration at 240 min [1]: 250 nM; concentration at 600 min [1]: 0 nM

Question: What does the source list for `Cn1ccnc1Cn1cnc(-c2ccc(F)cc2)c1-c1ccnc2[nH]ccc12` [Preparative Example 122, 4-(4-(4-fluorophenyl)-1-((1-methyl-1H-imidazol-2-yl)methyl)-1H-imidazol-5-yl)-1H-pyrrolo[2,3-b]pyridine]?
Answer: concentration at 15 min [1]: 2730 nM; concentration at 30 min [1]: 730 nM; concentration at 60 min [1]: 300 nM; concentration at 120 min [1]: 160 nM; concentration at 240 min [1]: 40 nM; concentration at 600 min [1]: 0 nM

Question: For `CN1CCC(Cn2cnc(-c3ccc(F)c(Cl)c3)c2-c2ccnc3[nH]ccc23)CC1` [Preparative Example 141, 4-(4-(3-chloro-4-fluorophenyl)-1-((1-methylpiperidin-4-yl)methyl)-1H-imidazol-5-yl)-1H-pyrrolo[2,3-b]pyridine], which viability at 100 µM (primary CLL cells) is on record?
Answer: The viability at 100 µM was 43%.

Question: What about the viability at 100 µM [2] of the same molecule?
Answer: The viability at 100 µM was 0%.

Question: What does the source list for `CN(C)[C@H]1CC[C@H](n2cnc(-c3ccc(F)c(Cl)c3)c2-c2ccnc3[nH]ccc23)CC1` [Preparative Example 142, (1R,4r)-4-(4-(3-chloro-4-fluorophenyl)-5-(1H-pyrrolo[2,3-b]pyridin-4-yl)-1H-imidazol-1-yl)-N,N-dimethylcyclohexan-1-amine]?
Answer: viability at 100 µM (primary CLL cells): 5%; viability at 100 µM [2]: 0%

Question: With `Fc1ccc(-c2ncn(C3CCCCC3)c2-c2ccnc3[nH]cc(Cl)c23)cc1` [Preparative Example 144, 3-chloro-4-(1-cyclohexyl-4-(4-fluorophenyl)-1H-imidazol-5-yl)-1H-pyrrolo[2,3-b]pyridine] as the molecule, how does the viability at 100 µM (primary CLL cells) read?
Answer: The viability at 100 µM was 36%.

Question: And the viability at 100 µM [2]?
Answer: Its viability at 100 µM is 1%.

Question: With `CC(c1ccccc1)n1cnc(-c2ccc(F)cc2)c1-c1ccnc2[nH]ccc12` (stereo not drawn) [Preparative Example 146, 4-(4-(4-fluorophenyl)-1-(1-phenylethyl)-1H-imidazol-5-yl)-1H-pyrrolo[2,3-b]pyridine] as the molecule, how does the viability at 100 µM (primary CLL cells) read?
Answer: The viability at 100 µM was 16%.

Question: And the viability at 100 µM [2]?
Answer: The viability at 100 µM was 0%.

Question: Which concentration at 15 min [1] does the source give for `Cn1nnc(Cn2cnc(-c3ccc(F)cc3)c2-c2ccnc3[nH]ccc23)n1` [Preparative Example 151] here?
Answer: The concentration at 15 min was 18900 nM.

Question: What about the concentration at 30 min [1] of the same molecule?
Answer: Its concentration at 30 min is 7240 nM.

Question: What about the concentration at 60 min [1] of the same molecule?
Answer: Its concentration at 60 min is 3980 nM.

Question: What about the concentration at 120 min [1] of the same molecule?
Answer: Its concentration at 120 min is 770 nM.

Question: And the concentration at 240 min [1]?
Answer: Its concentration at 240 min is 410 nM.

Question: And the concentration at 600 min [1]?
Answer: The concentration at 600 min was 0 nM.

Question: For `Fc1ccc(-c2ncn(Cc3c[nH]nn3)c2-c2ccnc3[nH]ccc23)cc1` [Preparative Example 153, 4-(1-((1H-1,2,3-triazol-4-yl)methyl)-4-(4-fluorophenyl)-1H-imidazol-5-yl)-1H-pyrrolo[2,3-b]pyridine], which viability at 100 µM (primary CLL cells) is on record?
Answer: The viability at 100 µM was 117%.

Question: What about the viability at 100 µM [2] of the same molecule?
Answer: The viability at 100 µM was 87%.

Question: What does the source list for `Fc1ccc(-c2nc(Cl)n(C3CCCCC3)c2-c2ccnc3[nH]ccc23)cc1` [Preparative Example 155, 4-(2-chloro-1-cyclohexyl-4-(4-fluorophenyl)-1H-imidazol-5-yl)-1H-pyrrolo[2,3-b]pyridine]?
Answer: viability at 100 µM (primary CLL cells): 1%; viability at 100 µM [2]: 0%

Question: For `CCOC(=O)c1nc(-c2ccc(F)cc2)c(-c2ccnc3[nH]ccc23)n1C1CCCCC1` [Preparative Example 163, ethyl 1-cyclohexyl-4-(4-fluorophenyl)-5-(1H-pyrrolo[2,3-b]pyridin-4-yl)-1H-imidazole-2-carboxylate], which viability at 100 µM (primary CLL cells) is on record?
Answer: The viability at 100 µM was 57%.

Question: And the viability at 100 µM [2]?
Answer: The viability at 100 µM was 10%.

Question: For `NC(=O)c1nc(-c2ccc(F)cc2)c(-c2ccnc3[nH]ccc23)n1C1CCCCC1` [Preparative Example 165, 1-cyclohexyl-4-(4-fluorophenyl)-5-(1H-pyrrolo[2,3-b]pyridin-4-yl)-1H-imidazole-2-carboxamide], which viability at 100 µM (primary CLL cells) is on record?
Answer: The viability at 100 µM was 0%.

Question: What about the viability at 100 µM [2] of the same molecule?
Answer: The viability at 100 µM was 0%.

Question: For `OCc1nc(-c2ccc(F)cc2)c(-c2ccnc3[nH]ccc23)n1C1CCCCC1` [Preparative Example 166, (1-cyclohexyl-4-(4-fluorophenyl)-5-(1H-pyrrolo[2,3-b]pyridin-4-yl)-1H-imidazol-2-yl)methanol], which viability at 100 µM (primary CLL cells) is on record?
Answer: Its viability at 100 µM is 7%.

Question: And the viability at 100 µM [2]?
Answer: Its viability at 100 µM is 4%.

Question: Which viability at 100 µM (primary CLL cells) does the source give for `CN(C)Cc1nc(-c2ccc(F)cc2)c(-c2ccnc3[nH]ccc23)n1C1CCCCC1` [Preparative Example 169, 1-(1-cyclohexyl-4-(4-fluorophenyl)-5-(1H-pyrrolo[2,3-b]pyridin-4-yl)-1H-imidazol-2-yl)-N,N-dimethylmethanamine] here?
Answer: The viability at 100 µM was 12%.

Question: And the viability at 100 µM [2]?
Answer: Its viability at 100 µM is 0%.

Question: What does the source list for `Nc1cc(-c2c(-c3ccc(F)cc3)ncn2C2CCCCC2)c2cc[nH]c2n1` [Preparative Example 170, 4-(1-cyclohexyl-4-(4-fluorophenyl)-1H-imidazol-5-yl)-1H-pyrrolo[2,3-b]pyridin-6-amine]?
Answer: viability at 100 µM (primary CLL cells): 56%; viability at 100 µM [2]: 6%

Question: For `Fc1ccc(-c2ncn(Cc3ccccc3)c2-c2ccnc3[nH]ccc23)cc1F` [Preparative Example 179, 4-(1-benzyl-4-(3,4-difluorophenyl)-1H-imidazol-5-yl)-1H-pyrrolo[2,3-b]pyridine], which viability at 100 µM (primary CLL cells) is on record?
Answer: The viability at 100 µM was 1%.

Question: What about the viability at 100 µM [2] of the same molecule?
Answer: The viability at 100 µM was 0%.
